# According to article PMC11062899, “De novo development of small cyclic peptides that are orally bioavailable” (Nature Chemical Biology, 2023):
# Values joined by “and” are separate entries in the source; they are usually repeats but may differ in a detail not shown here. Identical values can stand only once. Like-named read-outs stand apart in the source and are kept apart here.
# How the values were obtained:
# human α-thrombin = human α-thrombin (Homo sapiens, UniProt P00734); assay: Protease inhibition, Ki for human α-thrombin (fluorogenic substrate Z-Gly-Gly-Arg-AMC); type: biochemical; conditions: for Human alpha thrombin inhibition, slope normalized to DMSO: replicates R1-R3
# Method: (§1) The inhibition constants (Ki) of cyclic peptides were calculated by measuring thrombin inhibition in the presence of different concentrations of the cyclic peptides. […] Human α-thrombin (Molecular Innovations) and rat α-thrombin (Molecular Innovations) were used at final concentrations of 2 nM and 3 nM, respectively, and fluorogenic substrate (Z-Gly-Gly-Arg-AMC, Bachem) was used at a concentration of 50 μM. Enzymatic activity was determined by measuring fluorescent gain on a Tecan Infinite M200 Pro microplate reader (excitation: 360 nm, emission: 465 nm) or a PHERAstar FSX microplate reader (excitation: 380 nm, emission: 440 nm) for 30 min at 25 °C with a fluorescent readout every 3 min. The two instruments were controlled with Tecan Infinite M200 Pro instrument software (iControl, version 1.12) and PHERAstar FSX software (version 5.70, edition 8), respectively. Protease inhibition was calculated by comparing the enzymatic activity to a control without cyclic peptide.
# (§2) Half maximal inhibitory concentration (IC50) values were determined using a four-parameter logistic regression model in GraphPad Prism 9 to fit sigmoidal curves to the acquired data points according to equation (2) below.2 y=b+a−b/1+10^(logIC50−x)p where a and b represent the measured inhibition maximum and minimum, respectively; x is the logarithm of peptide concentration; y is the thrombin activity compared to a control without the cyclic peptide; and p is the Hill coefficient.
# (§3) Ki values were calculated using the IC50 and the Cheng–Prusoff equation (equation (3)).3 Ki=IC50/1+S0/Km where Km is the Michaelis–Menten constant of the enzyme for the substrate used in the assay, and [S]0 is the initial substrate concentration.
# rat α-thrombin = biological target: T1, rat α-thrombin (Rattus norvegicus, UniProt P18292); assay: Protease inhibition, Ki for rat α-thrombin (fluorogenic substrate Z-Gly-Gly-Arg-AMC); type: biochemical; conditions: for Rat alpha thrombin inhibition, slope normalized to DMSO: replicates R1-R3
# T1 construct: rat α-thrombin (Molecular Innovations) were used at final concentrations of 2 nM and 3 nM; purchased Molecular Innovations
# Method: as §1, §2, §3
# [1] = Passive artificial membrane permeability (PAMPA);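 on Permeability% Average: top well sample relative to theoretical equilibrium sample by TIC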
# [2] = peptide concentration 1.00E+02 uM
# [3] = peptide concentration 1.19E-05 uM
# [4] = peptide concentration 1.22E-02 uM
# [5] = peptide concentration 1.25E+01 uM
# [6] = peptide concentration 1.53E-03 uM
# [7] = peptide concentration 1.56E+00 uM
# [8] = peptide concentration 1.91E-04 uM
# [9] = peptide concentration 1.95E-01 uM
# [10] = peptide concentration 2.38E-05 uM
# [11] = peptide concentration 2.44E-02 uM
# [12] = peptide concentration 2.50E+01 uM
# [13] = peptide concentration 3.05E-03 uM
# [14] = peptide concentration 3.12E+00 uM
# [15] = peptide concentration 3.81E-04 uM
# [16] = peptide concentration 3.91E-01 uM
# [17] = peptide concentration 4.77E-05 uM
# [18] = peptide concentration 4.88E-02 uM
# [19] = peptide concentration 5.00E+01 uM
# [20] = peptide concentration 6.10E-03 uM
# [21] = peptide concentration 6.25E+00 uM
# [22] = peptide concentration 7.63E-04 uM
# [23] = peptide concentration 7.81E-01 uM
# [24] = peptide concentration 9.54E-05 uM
# [25] = peptide concentration 9.77E-02 uM
compound,measurement,setting,value
O=C1C[C@H]2CCCN2C(=O)[C@H](Cc2ccccc2)NC(=O)[C@@H](NC(=O)c2ccc(Cl)s2)CCC=CCCN1 [compound 39],Ki,"human α-thrombin; average of R1-R3, read-out: Human alpha thrombin inhibition, Ki Average",4.24 µM
same,"Human alpha thrombin inhibition, slope normalized to DMSO",human α-thrombin; [2],7.2 and 18.3 and 14.2
same,"Human alpha thrombin inhibition, slope normalized to DMSO",human α-thrombin; [3],106.2 and 105.2 and 96.5
same,"Human alpha thrombin inhibition, slope normalized to DMSO",human α-thrombin; [4],97.4 and 143.9 and 87.6
same,"Human alpha thrombin inhibition, slope normalized to DMSO",human α-thrombin; [5],39.9 and 42.6 and 31.3
same,"Human alpha thrombin inhibition, slope normalized to DMSO",human α-thrombin; [6],107.6 and 85.1 and 100.8
same,"Human alpha thrombin inhibition, slope normalized to DMSO",human α-thrombin; [7],63.5 and 67.4 and 86.8
same,"Human alpha thrombin inhibition, slope normalized to DMSO",human α-thrombin; [8],94.4 and 101.9 and 82.4
same,"Human alpha thrombin inhibition, slope normalized to DMSO",human α-thrombin; [9],80.8 and 88.6 and 87.2
same,"Human alpha thrombin inhibition, slope normalized to DMSO",human α-thrombin; [10],104.6 and 100.1 and 103.6
same,"Human alpha thrombin inhibition, slope normalized to DMSO",human α-thrombin; [11],87.3 and 61.5 and 110.7
same,"Human alpha thrombin inhibition, slope normalized to DMSO",human α-thrombin; [12],18.7 and 30.4 and 26.6
same,"Human alpha thrombin inhibition, slope normalized to DMSO",human α-thrombin; [13],107.4 and 96.1 and 108.0
same,"Human alpha thrombin inhibition, slope normalized to DMSO",human α-thrombin; [14],66.3 and 72.5 and 68.3
same,"Human alpha thrombin inhibition, slope normalized to DMSO",human α-thrombin; [15],108.2 and 71.6 and 89.8
same,"Human alpha thrombin inhibition, slope normalized to DMSO",human α-thrombin; [16],98.6 and 87.2 and 97.0
same,"Human alpha thrombin inhibition, slope normalized to DMSO",human α-thrombin; [17],102.6 and 101.4 and 90.5
same,"Human alpha thrombin inhibition, slope normalized to DMSO",human α-thrombin; [18],86.2 and 70.0 and 72.9
same,"Human alpha thrombin inhibition, slope normalized to DMSO",human α-thrombin; [19],22.0 and 20.2 and 22.5
same,"Human alpha thrombin inhibition, slope normalized to DMSO",human α-thrombin; [20],107.1 and 94.4 and 65.9
same,"Human alpha thrombin inhibition, slope normalized to DMSO",human α-thrombin; [21],53.3 and 30.4 and 58.6
same,"Human alpha thrombin inhibition, slope normalized to DMSO",human α-thrombin; [22],101.4 and 104.3 and 107.6
same,"Human alpha thrombin inhibition, slope normalized to DMSO",human α-thrombin; [23],93.7 and 88.2 and 91.3
same,"Human alpha thrombin inhibition, slope normalized to DMSO",human α-thrombin; [24],107.7 and 104.4 and 105.3
same,"Human alpha thrombin inhibition, slope normalized to DMSO",human α-thrombin; [25],100.1 and 100.4 and 85.5
same,IC50,"human α-thrombin; single replicates R1-R3, read-out: Human alpha thrombin inhibition, IC50",6.06 µM and 4.33 µM and 6.11 µM
same,Ki,"human α-thrombin; single replicates R1-R3, read-out: Human alpha thrombin inhibition, Ki",4.67 µM (2×) and 3.34 µM (2×) and 4.71 µM (2×)
same,Ki,"rat α-thrombin; average of R1-R3, read-out: Rat alpha thrombin inhibition, Ki Average",1.19 µM
same,"Rat alpha thrombin inhibition, slope normalized to DMSO",rat α-thrombin; [2],8.6 and 7.4 and 11.4
same,"Rat alpha thrombin inhibition, slope normalized to DMSO",rat α-thrombin; [3],107.5 and 103.5 and 101.6
same,"Rat alpha thrombin inhibition, slope normalized to DMSO",rat α-thrombin; [4],107.3 and 99.3 and 79.0
same,"Rat alpha thrombin inhibition, slope normalized to DMSO",rat α-thrombin; [5],23.0 and 17.3 and 19.0
same,"Rat alpha thrombin inhibition, slope normalized to DMSO",rat α-thrombin; [6],108.1 and 101.8 and 103.2
same,"Rat alpha thrombin inhibition, slope normalized to DMSO",rat α-thrombin; [7],38.0 and 68.3 and 64.4
same,"Rat alpha thrombin inhibition, slope normalized to DMSO",rat α-thrombin; [8],111.1 and 96.6 and 97.0
same,"Rat alpha thrombin inhibition, slope normalized to DMSO",rat α-thrombin; [9],80.3 and 102.2 and 95.7
same,"Rat alpha thrombin inhibition, slope normalized to DMSO",rat α-thrombin; [10],106.4 and 99.5 and 91.3
same,"Rat alpha thrombin inhibition, slope normalized to DMSO",rat α-thrombin; [11],104.4 and 97.3 and 93.2
same,"Rat alpha thrombin inhibition, slope normalized to DMSO",rat α-thrombin; [12],14.0 and 11.2 and 8.1
same,"Rat alpha thrombin inhibition, slope normalized to DMSO",rat α-thrombin; [13],71.4 and 100.8 and 98.3
same,"Rat alpha thrombin inhibition, slope normalized to DMSO",rat α-thrombin; [14],53.4 and 47.3 and 48.9
same,"Rat alpha thrombin inhibition, slope normalized to DMSO",rat α-thrombin; [15],103.9 and 95.9 and 106.5
same,"Rat alpha thrombin inhibition, slope normalized to DMSO",rat α-thrombin; [16],72.4 and 80.6 and 86.0
same,"Rat alpha thrombin inhibition, slope normalized to DMSO",rat α-thrombin; [17],110.4 and 101.0 and 101.1
same,"Rat alpha thrombin inhibition, slope normalized to DMSO",rat α-thrombin; [18],95.5 and 75.4 and 93.2
same,"Rat alpha thrombin inhibition, slope normalized to DMSO",rat α-thrombin; [19],9.4 and 9.6 and 8.3
same,"Rat alpha thrombin inhibition, slope normalized to DMSO",rat α-thrombin; [20],86.0 and 97.7 and 122.2
same,"Rat alpha thrombin inhibition, slope normalized to DMSO",rat α-thrombin; [21],35.0 and 30.8 and 29.6
same,"Rat alpha thrombin inhibition, slope normalized to DMSO",rat α-thrombin; [22],106.2 and 91.0 and 101.5
same,"Rat alpha thrombin inhibition, slope normalized to DMSO",rat α-thrombin; [23],51.1 and 75.3 and 70.4
same,"Rat alpha thrombin inhibition, slope normalized to DMSO",rat α-thrombin; [24],108.0 and 102.0 and 103.8
same,"Rat alpha thrombin inhibition, slope normalized to DMSO",rat α-thrombin; [25],101.3 and 96.8 and 84.0
same,IC50,"rat α-thrombin; single replicates R1-R3, read-out: Rat alpha thrombin inhibition, IC50",1.34 µM and 2.67 µM and 2.44 µM
same,Ki,"rat α-thrombin; single replicates R1-R3, read-out: Rat alpha thrombin inhibition, Ki",741 nM (2×) and 1.48 µM (2×) and 1.35 µM (2×)
same,PAMPA permeability: % permeability,"[1]; 50 μM, 12–18 h, acceptor concentration relative to equilibrium",70 ± 4%
same,Permeability% (single replicates R1–R3),"[1]; 50 μM, 13 h (Fig. 5d)",73.98% and 66.95% and 68.74%
same,Permeability% Average,"[1]; 50 μM, 13 h (Fig. 5d)",69.9%
same,Papp at 50 μM,"[1]; PAMPA, pH 7.4",11.5 ×10⁻⁶ cm/s
